The record followed here is ChEMBL document CHEMBL1201862, “PubChem BioAssay data set” (2004).

Molecules are shown by their SMILES.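 Compound exposure: 48 hours, 5 concentrations, 96-well plates. GI50: concentration for 50% inhibition of growth.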 Active and inactive are the calls of the source. No stated cut-off is given here; in the data, active = GI50 up to about 1.1 µM and inactive = higher.

Some test systems named below: Malme-3M; OVCAR-4; NCI-H23; T47D; 786-0; TK-10; OVCAR-5; SN12C; NCI-H522; SF-539; BT-549; MOLT-4; SNB-75; NCI/ADR-RES; MCF7; NCI-H460; A498; HL-60; CCRF-CEM; HCC 2998.
Assay in all cases: NCI anticancer screen, dose series, 48 h

Take `Cc1cc2cc3cc(C)c(N)cc3nc2cc1N` [ACRIDINE YELLOW]: the GI50 was 1.26 µM (inactive) in the assay with Malme-3M; 0.566 µM (active) in the assay with OVCAR-4; 0.794 µM (active) with NCI-H23; 0.865 µM (active) in the assay with T47D; 0.416 µM (active) in the assay on 786-0; 0.635 µM (active) with TK-10. Also, the GI50 with OVCAR-5 is 0.798 µM (active); with SN12C it was 0.448 µM (active); in the assay on NCI-H522, 0.271 µM (active); with SF-539, 1.01 µM (active); with BT-549, 5.52 µM (inactive); in the assay with MOLT-4 it was 0.237 µM (active). Besides, the GI50 in the assay with SNB-75 is 1.53 µM (inactive); with NCI/ADR-RES, 2.13 µM (inactive); in the assay on MCF7, 0.475 µM (active); with NCI-H460 it was 0.358 µM (active); in the assay with A498 it was 0.619 µM (active); in the assay on HL-60, 0.789 µM (active). Besides, the GI50 in the assay on CCRF-CEM was 0.383 µM (active).

For `OC(c1nc2ccccc2[nH]1)C(O)C(O)C(O)c1nc2ccccc2[nH]1` (configuration not stated), the GI50 in the assay with Malme-3M, in the assay on OVCAR-4, in the assay on T47D, with 786-0, in the assay on TK-10 and in the assay with OVCAR-5 was > 100 µM (inactive) each time. Further, the GI50 in the assay on SN12C, in the assay on NCI-H522, in the assay with SF-539, in the assay with BT-549, in the assay on MOLT-4 and with SNB-75 was > 100 µM (inactive) each time. The GI50 in the assay with NCI/ADR-RES, with MCF7, in the assay on NCI-H460, in the assay on A498 and in the assay on HL-60 was > 100 µM (inactive) throughout.

On to `CC1CCc2c(c(CC3CC(=O)NC(=O)C3)nn2-c2ccccc2)C1` (configuration not stated), for which the GI50 in the assay with Malme-3M, in the assay on OVCAR-4, in the assay on NCI-H23, with T47D, in the assay with 786-0 and with TK-10 was > 100 µM (inactive) throughout. The GI50 in the assay on OVCAR-5, with SN12C, with SF-539, in the assay with BT-549, in the assay with HCC 2998 and in the assay on MOLT-4 was > 100 µM (inactive) each time. Further, the GI50 was > 100 µM (inactive) with SNB-75; 75.2 µM (inactive) in the assay with NCI/ADR-RES; > 100 µM (inactive) with MCF7; 99.1 µM (inactive) in the assay on NCI-H460; > 100 µM (inactive) in the assay with A498; > 100 µM (inactive) with HL-60. The GI50 in the assay on CCRF-CEM was > 100 µM (inactive).

As to `CCC(O)CC1OC2(CCC1C)CC1OC(=O)/C=C\C(C)(O)C(O)C(C)C(O)C(OC3CC(OC)C(O)C(C)O3)C(O)C(C)(O)CCC/C=C/C3CC(C)COC3(O)CC(O2)C1C` (configuration not stated), the GI50 is 10.7 µM (inactive) in the assay with Malme-3M; < 0.0176 µM (active) with NCI-H23; < 0.0107 µM (active) in the assay on T47D; 20.2 µM (inactive) with 786-0; 1.6 µM (inactive) with TK-10; 6.18 µM (inactive) with OVCAR-5. For the same compound, the GI50 was 15.7 µM (inactive) with SN12C; 17.3 µM (inactive) with SF-539; 3.66 µM (inactive) in the assay on BT-549; 15.7 µM (inactive) with HCC 2998; 0.335 µM (active) in the assay with MOLT-4; 2.37 µM (inactive) in the assay on SNB-75. The GI50 with NCI/ADR-RES is 1.67 µM (inactive); in the assay with MCF7 it was < 0.01 µM (active); in the assay on NCI-H460, 6.62 µM (inactive); in the assay on A498, 3.82 µM (inactive); in the assay on HL-60 it was < 0.0199 µM (active); in the assay with CCRF-CEM, 0.23 µM (active).

Regarding `Cc1cc2nc3c(C#N)c(-c4ccccc4)cc(Nc4ccc(Cl)cc4)n3c2cc1C`, the GI50 is > 100 µM (inactive) in the assay on Malme-3M; > 100 µM (inactive) with OVCAR-4; > 100 µM (inactive) in the assay with NCI-H23; 6.24 µM (inactive) in the assay on T47D; > 100 µM (inactive) with 786-0; > 100 µM (inactive) with TK-10. Moreover, the GI50 in the assay on OVCAR-5 is > 100 µM (inactive); in the assay with SN12C, > 100 µM (inactive); in the assay on NCI-H522 it was 9.57 µM (inactive); in the assay with SF-539, > 100 µM (inactive); in the assay on BT-549, > 100 µM (inactive); in the assay on HCC 2998, > 100 µM (inactive). The GI50 in the assay with SNB-75 is > 100 µM (inactive); with NCI/ADR-RES it was > 100 µM (inactive); in the assay on MCF7 it was > 100 µM (inactive); in the assay with NCI-H460, 28.5 µM (inactive); in the assay with A498, > 100 µM (inactive); in the assay on CCRF-CEM it was 4.53 µM (inactive).

In the case of `CCOc1nc2sc3c(c2c(=O)n1CCSSCCn1c(OCC)nc2sc4c(c2c1=O)CCCC4)CCCC3`, the GI50 in the assay with Malme-3M, with OVCAR-4, in the assay on NCI-H23, in the assay on T47D, in the assay on 786-0 and in the assay with TK-10 was > 100 µM (inactive) in each case. In addition, the GI50 with OVCAR-5, in the assay with SN12C, in the assay with SF-539, with BT-549, in the assay on HCC 2998 and with MOLT-4 was > 100 µM (inactive) throughout. Besides, the GI50 in the assay on SNB-75, with NCI/ADR-RES, in the assay on MCF7, in the assay with NCI-H460 and in the assay with A498 was > 100 µM (inactive) throughout.

With `COc1ccccc1/N=C1\SCCN1C(=S)Nc1ccc(S(=O)(=O)/N=C/N(C)C)cc1`, the GI50 in the assay with OVCAR-4 is 43.2 µM (inactive); in the assay with NCI-H23, 27.1 µM (inactive); with T47D, 25.8 µM (inactive); with 786-0 it was 44.2 µM (inactive); with TK-10, 36 µM (inactive); with OVCAR-5, 87.5 µM (inactive). Further, the GI50 in the assay with SN12C is 50.9 µM (inactive); with SF-539, 21.9 µM (inactive); in the assay on BT-549, 21.9 µM (inactive); with HCC 2998 it was > 100 µM (inactive); with MOLT-4 it was 22.6 µM (inactive); in the assay on SNB-75, 29.6 µM (inactive). Besides, the GI50 with NCI/ADR-RES was 45 µM (inactive); in the assay with MCF7 it was 26.1 µM (inactive); in the assay with NCI-H460 it was > 100 µM (inactive); in the assay with A498, > 100 µM (inactive); in the assay with HL-60, 27.4 µM (inactive); in the assay on CCRF-CEM it was 38.3 µM (inactive).

For `Nc1nc(O)c2ncn(C3C=CC(CO)C3)c2n1` (configuration not stated), the GI50 in the assay with Malme-3M, in the assay on OVCAR-4, in the assay on NCI-H23, in the assay with T47D, with 786-0 and with TK-10 was > 100 µM (inactive) throughout. Moreover, the GI50 with OVCAR-5, with SN12C, with NCI-H522, with SF-539, with BT-549 and with HCC 2998 was > 100 µM (inactive) in each case. For the same compound, the GI50 in the assay with SNB-75, in the assay with NCI/ADR-RES, in the assay on MCF7, in the assay on NCI-H460 and with A498 was > 100 µM (inactive) throughout.

For the compound `CC(NC(=O)C(Cc1ccc(OC(=O)c2ccccc2)cc1)NC(=O)OC(C)(C)C)C(=O)NCC(=O)NC(Cc1ccccc1)NC(=O)OCc1ccccc1` (configuration not stated), the GI50 is > 100 µM (inactive) in the assay with Malme-3M; 15.8 µM (inactive) in the assay on OVCAR-4; > 100 µM (inactive) in the assay with NCI-H23; > 100 µM (inactive) in the assay on T47D; > 100 µM (inactive) with 786-0; > 100 µM (inactive) with TK-10. For the same compound, the GI50 is > 100 µM (inactive) in the assay on OVCAR-5; > 100 µM (inactive) in the assay on SN12C; > 100 µM (inactive) with NCI-H522; > 100 µM (inactive) in the assay with SF-539; > 100 µM (inactive) in the assay with BT-549; 62.7 µM (inactive) with MOLT-4. Further, the GI50 in the assay with SNB-75 is > 100 µM (inactive); in the assay with NCI/ADR-RES it was > 10 µM (inactive); in the assay on MCF7 it was > 100 µM (inactive); with NCI-H460, > 100 µM (inactive); in the assay with A498, 28.5 µM (inactive); in the assay with HL-60 it was > 100 µM (inactive).

`Nc1ccc2[nH]c(C(=O)N3CC(CCl)c4c3cc(N)c3ccccc43)cc2c1` (configuration not stated): the GI50 with OVCAR-4 is < 0.01 µM (active); with NCI-H23, < 0.01 µM (active); with T47D, 0.0119 µM (active); in the assay with 786-0, < 0.01 µM (active); with TK-10, < 0.01 µM (active); in the assay on OVCAR-5, < 0.01 µM (active). Further, the GI50 in the assay on SN12C is < 0.01 µM (active); with SF-539, < 0.01 µM (active); in the assay with BT-549, < 0.016 µM (active); in the assay with HCC 2998, < 0.01 µM (active); in the assay with MOLT-4, < 0.01 µM (active); in the assay with SNB-75 it was < 0.01 µM (active). Besides, the GI50 in the assay on NCI/ADR-RES, in the assay on MCF7, with NCI-H460, in the assay with A498, in the assay on HL-60 and with CCRF-CEM was < 0.01 µM (active) in each case.

For the compound `Cc1oc2c(c1C)S(=O)(=O)C(C#N)=C(N(C)C)N2`, the GI50 in the assay with Malme-3M, with OVCAR-4, with NCI-H23, with T47D, in the assay with 786-0 and in the assay on TK-10 was > 100 µM (inactive) each time. Moreover, the GI50 in the assay on OVCAR-5, in the assay with SN12C, with NCI-H522, with SF-539, with BT-549 and in the assay on HCC 2998 was > 100 µM (inactive) throughout. The GI50 in the assay on MOLT-4, in the assay on SNB-75, with NCI/ADR-RES, in the assay on MCF7, in the assay with NCI-H460 and with A498 was > 100 µM (inactive) in each case.
